Experimental data reported in ChEMBL document CHEMBL1201862, “PubChem BioAssay data set” (2004).
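In this assay, cells in 96-well plates receive the compound at five concentrations for 48 hours. Endpoints are linearly interpolated between the surrounding concentrations. GI50 is the concentration that inhibits growth by half.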 The source made the active and inactive calls. Rule as the data show it: active = GI50 up to about 1.1 µM and inactive = higher.

Experiments:
Assay in all cases: growth of human tumour cells (NCI), 48 h
Hs-578T = system: Hs-578T
HCT-116 = system: HCT-116
NCI-H23 = system: NCI-H23
786-0 = system: 786-0
HOP-92 = system: HOP-92
SK-OV-3 = system: SK-OV-3
OVCAR-5 = system: OVCAR-5
CAKI-1 = system: CAKI-1
OVCAR-3 = system: OVCAR-3
HOP-62 = system: HOP-62
SF-268 = system: SF-268
SN12C = system: SN12C
HCT-15 = system: HCT-15
UACC-62 = system: UACC-62
TK-10 = system: TK-10
DU-145 = system: DU-145
NCI/ADR-RES = system: NCI/ADR-RES
MCF7 = system: MCF7
SK-MEL-2 = system: SK-MEL-2
M14 = system: M14
BT-549 = system: BT-549
IGROV-1 = system: IGROV-1
NCI-H226 = system: NCI-H226
U-251 = system: U-251
SNB-19 = system: SNB-19
K562 = system: K562
SR = system: SR
MDA-MB-435 = system: MDA-MB-435
RXF 393 = system: RXF 393
KM12 = system: KM12
NCI-H522 = system: NCI-H522
RPMI-8226 = system: RPMI-8226
Malme-3M = system: Malme-3M
SF-539 = system: SF-539
EKVX = system: EKVX
MDA-N = system: MDA-N
OVCAR-8 = system: OVCAR-8
CCRF-CEM = system: CCRF-CEM
OVCAR-4 = system: OVCAR-4
LOX IMVI = system: LOX IMVI
SF-295 = system: SF-295
HT-29 = system: HT-29
A498 = system: A498
MDA-MB-231 = system: MDA-MB-231
ACHN = system: ACHN
HL-60 = system: HL-60
UACC-257 = system: UACC-257
T47D = system: T47D
UO-31 = system: UO-31
HCC 2998 = system: HCC 2998
MOLT-4 = system: MOLT-4
PC-3 = system: PC-3
NCI-H460 = system: NCI-H460
A549 = system: A549
SK-MEL-5 = system: SK-MEL-5

## COc1ccc(C2=Nn3c(C)nnc3S/C2=C\c2ccc(-c3ccc([N+](=O)[O-])cc3)o2)cc1
Hs-578T
  GI50: 49.4 µM (inactive)
HCT-116
  GI50: 11 µM (inactive)
NCI-H23
  GI50: 13.9 µM (inactive)
786-0
  GI50: 4.94 µM (inactive)
HOP-92
  GI50: 22.5 µM (inactive)
SK-OV-3
  GI50: 64.1 µM (inactive)
OVCAR-5
  GI50: 18.4 µM (inactive)
CAKI-1
  GI50: 14.5 µM (inactive)
OVCAR-3
  GI50: 10.9 µM (inactive)
HOP-62
  GI50: 24.4 µM (inactive)
SF-268
  GI50: 12.3 µM (inactive)
SN12C
  GI50: 11 µM (inactive)
HCT-15
  GI50: 10.9 µM
UACC-62
  GI50: 12.1 µM (inactive)
TK-10
  GI50: 13.7 µM (inactive)
DU-145
  GI50: 12.2 µM (inactive)
NCI/ADR-RES
  GI50: 7.85 µM (inactive)
MCF7
  GI50: 3.18 µM (inactive)
SK-MEL-2
  GI50: 13.3 µM (inactive)
M14
  GI50: 17.7 µM (inactive)
BT-549
  GI50: 5.86 µM (inactive)
IGROV-1
  GI50: 20.8 µM (inactive)
NCI-H226
  GI50: 27.2 µM (inactive)
U-251
  GI50: 9.33 µM (inactive)
SNB-19
  GI50: 15.6 µM (inactive)
K562
  GI50: 3.55 µM (inactive)
SR
  GI50: 3.21 µM (inactive)
MDA-MB-435
  GI50: 3.78 µM (inactive)
RXF 393
  GI50: 9.31 µM (inactive)
KM12
  GI50: 16.1 µM (inactive)
NCI-H522
  GI50: 6.34 µM (inactive)
RPMI-8226
  GI50: 3.22 µM (inactive)
Malme-3M
  GI50: 30.1 µM (inactive)
SF-539
  GI50: 5.51 µM (inactive)
EKVX
  GI50: 27.9 µM (inactive)
MDA-N
  GI50: 6.62 µM (inactive)
OVCAR-8
  GI50: 3.62 µM (inactive)
CCRF-CEM
  GI50: 3.92 µM (inactive)
OVCAR-4
  GI50: 22.2 µM (inactive)
LOX IMVI
  GI50: 6.03 µM (inactive)
SF-295
  GI50: 38 µM (inactive)
HT-29
  GI50: 14.2 µM (inactive)
A498
  GI50: 31.2 µM (inactive)
MDA-MB-231
  GI50: 19.9 µM (inactive)
ACHN
  GI50: 11.7 µM (inactive)
HL-60
  GI50: 5.12 µM (inactive)
UACC-257
  GI50: 17.3 µM (inactive)
T47D
  GI50: 4.88 µM (inactive)
UO-31
  GI50: 15.1 µM (inactive)
HCC 2998
  GI50: 7.41 µM (inactive)
MOLT-4
  GI50: 3.56 µM (inactive)
PC-3
  GI50: 9.84 µM (inactive)
NCI-H460
  GI50: 14.9 µM (inactive)
A549
  GI50: 20 µM (inactive)
SK-MEL-5
  GI50: 19 µM (inactive)
